According to patent US20200377505A1, “BENZIMIDAZOLES AND AZA-BENZIMIDAZOLES, AND METHODS OF USE THEREOF” (Goldfinch Bio., Inc., priority 2017, published 2020):

Assays:
human TRPC6 = target: T1, human TRPC6 (Homo sapiens, UniProt Q9Y210); experiment: TRPC6 fluorescence-based assay (Ca2+ flux assay in FLIPR format), cells overexpressing TRPC6; format: cell-based; conditions: 5 μM of test compound, following Carbachol stimulation
T1 construct: expressed in transfected cells; host or cells: HEK 293
T1 sequence (Q9Y210 1-931): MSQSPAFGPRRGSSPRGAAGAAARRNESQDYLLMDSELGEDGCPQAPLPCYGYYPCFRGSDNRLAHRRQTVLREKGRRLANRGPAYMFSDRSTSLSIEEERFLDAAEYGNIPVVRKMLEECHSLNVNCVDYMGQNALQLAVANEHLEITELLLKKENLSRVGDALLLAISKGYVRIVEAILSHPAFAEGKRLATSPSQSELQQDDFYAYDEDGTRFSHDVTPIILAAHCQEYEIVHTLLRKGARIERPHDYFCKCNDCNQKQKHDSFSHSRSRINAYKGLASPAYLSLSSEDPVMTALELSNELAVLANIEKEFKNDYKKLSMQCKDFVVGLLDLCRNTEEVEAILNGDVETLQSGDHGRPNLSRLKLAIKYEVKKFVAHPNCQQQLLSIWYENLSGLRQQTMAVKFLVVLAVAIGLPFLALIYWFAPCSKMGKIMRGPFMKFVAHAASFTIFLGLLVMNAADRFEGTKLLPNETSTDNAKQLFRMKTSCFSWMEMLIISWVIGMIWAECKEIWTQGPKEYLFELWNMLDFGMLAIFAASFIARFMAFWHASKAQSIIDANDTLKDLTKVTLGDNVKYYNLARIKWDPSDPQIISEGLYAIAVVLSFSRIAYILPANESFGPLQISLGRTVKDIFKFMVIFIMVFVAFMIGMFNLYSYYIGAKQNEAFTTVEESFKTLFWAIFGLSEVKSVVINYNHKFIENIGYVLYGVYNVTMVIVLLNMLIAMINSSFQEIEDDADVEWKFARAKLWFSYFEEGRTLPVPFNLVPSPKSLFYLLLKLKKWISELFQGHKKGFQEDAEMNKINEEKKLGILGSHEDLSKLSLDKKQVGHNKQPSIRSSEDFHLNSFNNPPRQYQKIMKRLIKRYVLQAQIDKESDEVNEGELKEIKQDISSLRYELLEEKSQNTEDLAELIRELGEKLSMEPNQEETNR

human TRPC5 = target: T2, human TRPC5 (Homo sapiens, UniProt Q9UL62); experiment: TRPC5 fluorescence-based assay (Ca2+ flux assay in FLIPR format), cells overexpressing TRPC5; format: cell-based; conditions: 5 μM of test compound, following Carbachol stimulation
T2 construct: expressed in transfected cells; host or cells: HEK 293
T2 sequence (Q9UL62 1-973): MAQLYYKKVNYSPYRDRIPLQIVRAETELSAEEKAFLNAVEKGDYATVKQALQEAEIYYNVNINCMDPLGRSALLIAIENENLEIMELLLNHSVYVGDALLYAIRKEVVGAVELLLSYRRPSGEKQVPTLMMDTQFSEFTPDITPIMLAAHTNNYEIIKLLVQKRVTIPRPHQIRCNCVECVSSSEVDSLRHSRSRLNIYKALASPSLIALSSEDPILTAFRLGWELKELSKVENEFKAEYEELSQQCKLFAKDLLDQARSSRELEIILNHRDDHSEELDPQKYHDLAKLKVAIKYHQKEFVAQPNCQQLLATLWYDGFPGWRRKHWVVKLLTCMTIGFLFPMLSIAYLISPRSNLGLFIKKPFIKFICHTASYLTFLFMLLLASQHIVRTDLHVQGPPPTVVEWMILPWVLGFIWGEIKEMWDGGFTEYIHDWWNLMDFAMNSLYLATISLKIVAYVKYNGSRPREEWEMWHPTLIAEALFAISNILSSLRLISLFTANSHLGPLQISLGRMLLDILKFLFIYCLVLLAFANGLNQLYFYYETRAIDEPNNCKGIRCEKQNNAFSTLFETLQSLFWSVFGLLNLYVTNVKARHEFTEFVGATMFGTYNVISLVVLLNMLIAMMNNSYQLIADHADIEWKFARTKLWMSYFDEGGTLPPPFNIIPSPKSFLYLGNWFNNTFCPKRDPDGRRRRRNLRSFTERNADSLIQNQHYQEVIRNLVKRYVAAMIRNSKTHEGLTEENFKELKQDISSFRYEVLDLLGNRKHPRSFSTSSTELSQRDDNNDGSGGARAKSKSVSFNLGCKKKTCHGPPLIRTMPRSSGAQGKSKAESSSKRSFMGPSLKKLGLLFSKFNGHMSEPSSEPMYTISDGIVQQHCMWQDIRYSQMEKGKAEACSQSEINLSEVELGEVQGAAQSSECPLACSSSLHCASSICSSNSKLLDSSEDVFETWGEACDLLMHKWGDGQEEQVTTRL

| inhibition at 5 µM (human TRPC6) | inhibition at 5 µM (human TRPC5) | Inhibition of TRPC6 (A) (human TRPC6; 5 µM) | Inhibition of TRPC5 (A) (human TRPC5; 5 µM) | SMILES |
| --- | --- | --- | --- | --- |
| 84.3% | 52.4% | – | – | Nc1nc2ccccc2n1Cc1ccc(Cl)c(Cl)c1 |
| 37.5% | 72% | – | – | Clc1ccc(Cn2c(NCc3cccs3)nc3ccccc32)cc1 |
| – | – | 72.31% | 65.84% | CCCCn1c(NCc2cccs2)nc2ccccc21 [drawing 82] |
| 65.7% | 61.2% | – | – | CCN(CC)c1ccc(CNc2nc3ccccc3n2CCN2CCCCC2)cc1 |
| 80.6% | 50% | – | – | CC(C)c1ccc(CNc2nc3ccccc3n2C)cc1 |
| 76.2% | 70% | – | – | Cc1ccccc1OCCn1c(C)nc2ccccc21 |
| 28.4% | 58.2% | – | – | O=C(Cn1c(NCCCO)nc2ccccc21)C12CC3CC(CC(C3)C1)C2 |
| 3.97% | 51% | – | – | CC(C)(C)NC(=O)Cn1c(NCc2ccccc2)nc2ccccc21 |
| 3.16% | 51.8% | – | – | CCn1c(NCc2cc(C)ccc2O)nc2ccccc21 |
| 27.7% | 39.7% | – | – | Cc1ccc(Cn2c(C(C)(C)C)nc3ccccc32)cc1 |
| 54.7% | 70.6% | – | – | CCCn1c(NCc2c[nH]c3ccccc23)nc2ccccc21 |
| 53.7% | 49.9% | – | – | Nc1nc2ccccc2n1CCOc1ccccc1Cl |
| 84.1% | 72.7% | – | – | COc1ccccc1NC(=O)Cn1c(C)nc2ccccc21 |
| 82.8% | 61.4% | – | – | CCCn1c(-c2ccc(Br)cc2)nc2ccccc21 |
| 27.2% | 61.1% | – | – | CC(C)CCn1c(-c2ccc(N)cc2)nc2ccccc21 |
| 61.7% | 47.9% | – | – | Fc1cccc(Cl)c1Cn1c(-c2ccco2)nc2ccccc21 |
| 2.78% | 27% | – | – | CCC(=O)NCCc1nc2ccccc2n1Cc1ccc(F)cc1 |
| 90.5% | 74.3% | – | – | COc1ccc(/C=N/c2nc3ccccc3n2Cc2ccccc2)cc1OC |
| 21.9% | 61.3% | – | – | CCCCCCn1c(NCc2ccccc2O)nc2ccccc21 |
| 19.3% | 43.9% | – | – | CCOc1ccccc1CNc1nc2ccccc2n1C |
| 68.9% | 63.3% | – | – | COc1ccc(CCN2CCC(Nc3nc4ccccc4n3CCc3ccc(OC)cc3)CC2)cc1 |

| inhibition at 5 µM (human TRPC6) | inhibition at 5 µM (human TRPC5) | Inhibition of TRPC6 (A) (human TRPC6; 5 µM) | Inhibition of TRPC5 (A) (human TRPC5; 5 µM) | SMILES |
| --- | --- | --- | --- | --- |
| 41.5% | 53.4% | – | – | COc1ccc(/C=N/c2nc3ccccc3n2Cc2ccc(C)cc2)cc1 |
| 14.6% | 50.7% | – | – | C=CCn1c(NCc2cccs2)nc2ccccc21 |
| 30.4% | 59.5% | – | – | CCCCn1c(NCc2nc3ccccc3n2C)nc2ccccc21 |
| 8.36% | 40.7% | – | – | OCCNc1nc2ccccc2n1CCOc1ccccc1 |
| 17.7% | 36.7% | – | – | c1ccc(Cc2nc3ccccc3n2CCOc2ccccc2)cc1 |
| 81.8% | 32.1% | – | – | Cc1ccc(NC(=O)Cn2c(C)nc3ccccc32)cc1 |
| -6.21% | 42.8% | – | – | CCCn1c(NCc2nc3ccccc3n2C)nc2ccccc21 |
| 94% | 59% | – | – | CCn1c(Cc2ccc(OC)c(OC)c2)nc2ccccc21 |
| -9.99% | 42.3% | – | – | Cn1c(CC(O)c2ccccc2)nc2ccccc21 (stereo not drawn) |
| 27.7% | 66.8% | – | – | Cn1c(NCc2c[nH]c3ccccc23)nc2ccccc21 |
| 81.3% | 66.1% | – | – | CCCCn1c(NCc2cccs2)nc2ccccc21 [drawing 80] |
| 52.9% | 56.4% | – | – | Cc1cccc(OCCn2c(Cc3ccccc3)nc3ccccc32)c1 |
| 91.5% | 66% | – | – | C#CCn1c(Cc2ccc(OC)c(OC)c2)nc2ccccc21 |
| 92.5% | 85.9% | – | – | c1ccc(Cc2nc3ccccc3n2CCCOc2ccccc2)cc1 |
| 85.5% | 63.5% | – | – | Clc1ccc(Cn2cnc3ccccc32)c(Cl)c1 |
| 51% | 55% | – | – | Brc1cccc(CNc2nc3ccccc3n2CCN2CCCCC2)c1 |
| 22.8% | 30.2% | – | – | CCCn1c(COc2ccccc2)nc2ccccc21 |
| 27.5% | 45.5% | – | – | Cn1c(NCc2cccc3ccccc23)nc2ccccc21 |
| 45% | 45% | – | – | C=C(C)Cn1c(-c2ccc(N(C)C)cc2)nc2ccccc21 |
| 21.9% | 63.4% | – | – | CCN(CC)CCn1c(NCc2ccccc2OC)nc2ccccc21 |
| 40.7% | 45.1% | – | – | CCOc1ccccc1Nc1nc2ccccc2n1C(C)C |

| inhibition at 5 µM (human TRPC6) | inhibition at 5 µM (human TRPC5) | Inhibition of TRPC6 (A) (human TRPC6; 5 µM) | Inhibition of TRPC5 (A) (human TRPC5; 5 µM) | SMILES |
| --- | --- | --- | --- | --- |
| 58.5% | 44.9% | – | – | COc1ccc(NCc2nc3ccccc3n2CCOc2ccccc2C)cc1 |
| 69.8% | 62.9% | – | – | CCN(CC)CCn1c(NCc2cccc(Br)c2)nc2ccccc21 |
| 14.9% | 40.7% | – | – | CCCn1c(NCc2ccco2)nc2ccccc21 |
| 74.7% | 64.9% | – | – | CCCn1c(NCc2ccc(N(CC)CC)cc2)nc2ccccc21 |
| 83.6% | 59.1% | – | – | COCCn1c(SCC(=O)Nc2cccc3ncccc23)nc2ccccc21 |
| 66.1% | 37.5% | – | – | CCOc1ccc(NCc2nc3ccccc3n2CCOc2ccccc2C)cc1 |
| 69.7% | 55.2% | – | – | CC(NCc1nc2ccccc2n1C)C12CC3CC(CC(C3)C1)C2 (stereo not drawn) |
| -8.69% | 50% | – | – | CCn1c(NCc2ccccc2O)nc2ccccc21 |
| 89.9% | 73.4% | – | – | COc1ccccc1Cn1c(C)nc2ccccc21 |
| 43.5% | 60.9% | – | – | CCN(CC)CCn1c(NCc2ccc(OC)cc2OC)nc2ccccc21 |
| 18.5% | 45.8% | – | – | Brc1cccc(CNc2nc3ccccc3n2CCN2CCOCC2)c1 |
| 70% | 39.7% | – | – | Cc1nc2ccccc2n1CC(=O)Nc1ccc(Cl)cc1 |
| 16.5% | 64.4% | – | – | c1csc(CNc2nc3ccccc3n2CCN2CCCCC2)c1 |
| 35.3% | 34.9% | – | – | CCC(CC)c1nc2ccccc2n1Cc1ccccc1 |
| -7.07% | 38.9% | – | – | CC(C)(C)C(=O)NCCc1nc2ccccc2n1Cc1ccc(Cl)cc1 |
| -0.71% | 46.3% | – | – | CCCCc1nc2ccccc2n1CC(=O)N1CCCC1c1nc2ccccc2s1 (stereo not drawn) |
| 54.1% | 39.9% | – | – | CCn1c(NCc2cccc(Br)c2)nc2ccccc21 |
| 31.3% | 53.4% | – | – | COc1ccc(CNc2nc3ccccc3n2Cc2ccc(Cl)cc2)cc1OC |
| 6.92% | 69.6% | – | – | COc1ccc(-n2c(SCC(=O)Nc3cccc(S(=O)(=O)N4CCOCC4)c3)nc3ccccc32)cc1 |
| 14.5% | 35.7% | – | – | CC(C)n1c(Nc2ccccc2)nc2ccccc21 |

| SMILES | inhibition at 5 µM (human TRPC6) | inhibition at 5 µM (human TRPC5) | Inhibition of TRPC6 (A) (human TRPC6; 5 µM) | Inhibition of TRPC5 (A) (human TRPC5; 5 µM) |
| --- | --- | --- | --- | --- |
| CCN(CC)CCn1c(NCc2ccc(Cl)cc2)nc2ccccc21 | 57.1% | 62% | – | – |
